Assay results from US5260425A, “Anthracycline derivatives having cytostatic activity” (priority 1988, dated 1993).
≈ marks a conversion by molar mass, not a printed value. Read-outs that look alike come from different tables or passages of the source.

How the values were obtained:
[1] = test system: L1210 mouse leukemia cells; assay: Formation of colonies of L1210 leukemia cells in soft agar (cytotoxicity in vitro); type: cell-based; conditions: for IC50: Mus musculus
Description: The cytostatic activity of the compounds according to the invention has been tested using L1210 mouse leukemia cells. Employed for this purpose was the formation of colonies of L1210 leukemia cells in agar plates. This method is used to detect the effect of the test substances on the growth behavior of the cells over 1 hour or over several generations. In this connection, with a cell cycle time of 10-12 hours about 14 consecutive generations are observed in the 7 days the test lasts. In this test, the substances having cytostatic activity according to the invention bring about a reduction in the number of colonies to be observed by comparison with an untreated control sample.
Procedure for determining the formation of colonies of L1210 leukemia cells in soft agar
500 leukemia cells per plate were incubated with various concentrations of the test substance at 37° C. for 1 hour. The cells were then washed twice with McCoy5A medium and finally, after addition of 0.3% agar, poured into Petri dishes. Controls were incubated only with fresh medium. In place of the incubation for one hour, in some cases various concentrations and test substances were mixed with the upper agar layer in order in this way to achieve continuous exposure of the cells throughout the incubation time. After the agar had solidified, the plates were incubated in an incubator at 37° C. for 7 days (5% by volume CO2, 95% relative humidity). The number of colonies which had been produced with a diameter of more than 60 μm was then counted. The results have been reported as the number of colonies in treated agar plates as a percentage of the untreated control. The IC50 was determined as a measure of the activity of the substance from the dose-effect plot obtained in this way. The results for the compounds described herein, by comparison with adriamycin, are compiled in Table 1.

L1210 leukemia = assay: In vivo activity on L1210 leukemia of the mouse (antitumor activity T/C)
Description: Ascites fluid is removed from DBA2 mice (female, 18-20 g) under sterile conditions 7 days after inoculation of tumor cells. The ascites is washed three times with PBS (phosphate-buffered saline), counted and adjusted to a cell count of 10^6 in 0.2 ml of PBS.
10^6 cells, suspended in 0.2 ml of PBS, are then injected intraperitoneally into DBF1 mice (female, 18-20 g). 6 animals per group are used for each substance concentration and as controls.
a) The animals are weighed on days 1 and 5 after injection of the test substance. A weight loss of more than 20% on day 5 is regarded as an indicator of a toxic effect of the substance.
b) At the end of the experiment (death of all animals or surviving animals on day 60) the mean survival time of the animals in the particular groups is determined as long as at least 65% of the animals were still alive on day 5 of the experiment. The mean survival time is determined only for animals which die during the course of the experiment. Long-term survivors (LTS) are not included in this calculation and are reported separately.
The antitumor activity (T/C) for the particular substance concentration is determined from the mean survival time (MSTT) in the treated groups and in the control groups (MSTC) as a percentage of the untreated controls in accordance with the following formula: [formula]
The T/C values and the treatment regimen employed in each case are compiled in Table 3, together with the indicative toxicity. T/C values greater than 125% are regarded as an indicator of a significant antitumor activity of the test substance.

[2] = Determination of the indicative toxicity; conditions: mouse, in vivo, ip; 3xip,q3d (three intraperitoneal administrations, 3 days interval); survival day 14
Description: To determine the indicative toxicity, NMRI mice receive an intraperitoneal injection of various doses of the test substance dissolved in 0.5 ml of 5% strength glucose solution on day 0. Control groups receive merely 0.5 ml of 5% strength glucose solution. 5 mice are used for each concentration of the test substance. The number of mice surviving on day 14 is determined, and from this the LD5, LD50 and LD95 are determined by the Litchfield-Wilcoxon method. The toxicity (LD50 (mg/kg)) of the compounds described here is summarized in Table 3 by comparison with adriamycin.

[3] = test system: sensitive and resistant L1210 leukemia cells; assay: Proliferation test (MTT reduction), cross-resistance to doxorubicin/adriamycin in vitro; type: cell-based, mouse; conditions: for Degree of resistance of the cell / Cross-resistance to adriamycin (degree of cross-resistance): MTT, 3d; for Degree of resistance of the cell: IC50 resistant subline related to IC50 sensitive subline; for Cross-resistance to adriamycin (degree of cross-resistance): adriamycin = 100.0
Description: L1210, A 549 or HT 29 in the exponential phase of growth are incubated in a cell density of 5×10^3 cells/ml in RPMI 1640 in a 96-well microtiter plate with various concentrations of the test substance at 37° C., 5% CO2 and 95% relative humidity for 72 h. Control experiments receive merely growth medium in place of the test substance. Quadruplicate determinations are set up for each test substance and for the control. After incubation for 65 h, 50 μl of an MTT solution (2.5 mg/ml; MTT=3-(4,5-dimethylthiazol-2-yl)-2,5-diphenyltetrazoliumbromide) in phosphate-buffered saline) are added. MTT is reduced to a dark red insoluble formazan dyestuff in the presence of live cells. This reaction is complete after 7 h (L1210 cells) or after 24 h (A 549, HT 29 cells), and the supernatant medium is carefully removed by aspiration. The insoluble dyestuff is dissolved by addition of 100 μl of DMSO (dimethyl sulfoxide) and the extinction of the resulting solution at a wavelength of 492 nm is then measured for each well in a multiscan 340 CC photometer from Flow.
The ratio of the extinctions for treated and untreated cells provides a dose-effect plot from which the concentration which just kills 50% of the cells (IC50) can be read off. The coefficient of variation for repeat investigations is less than 15%.
The cross-resistance between the particular test compound and doxorubicin as standard compound is determined with the aid of the MTT test (see above for method) on sensitive and resistant L1210 leukemia cells.
The resistant cell line was established by incubation of a sensitive subline with the reference compound in concentrations which increased stepwise.
The IC50 of the test compound on the resistant subline related to the IC50 of the sensitive subline provides both the degree of resistance for the test Compound (DR(T)) and that for the reference compound (DR(R)) in accordance with the formula [formula]
In addition, the degree of cross-resistance (DCR) for the test compound is calculated in accordance with the formula [formula]
In the case where the loss of effect of the test compound on the resistant line in relation to the sensitive line is greater than that of the reference compound it is possible for the degree of cross-resistance to be above 100%.

[4] = 1 h incubation, then 7 days, L1210 colonies in agar
[5] = continuous incubation, 7 days, L1210 colonies in agar
[6] = 168 h, continuous incubation, 7 days, L1210 colonies in agar, read-out: IC50, continuous incubation
[7] = 1 h incubation, then 7 days, L1210 colonies in agar, read-out: IC50, 1 h incubation
[8] = L1210, 168 h, read-out: IC50, continuous incubation, continuous incubation, 7 days, L1210 colonies in agar
[9] = L1210, read-out: IC50, 1 h incubation, 1 h incubation, then 7 days, L1210 colonies in agar

SMILES	IC50 [1, 6]	IC50 [1, 7]	LD50 at 336 h [2]	also measured
CC[C@@]1(O)C[C@H](O[C@H]2C[C@H](N(C)CC3CO3)[C@H](O)[C@H](C)O2)c2c(O)c3c(c(O)c2[C@H]1O)C(=O)c1cccc(O)c1C3=O (single isomer, unassigned) [Compound 8a, 7-O-(3'-N-Glycidyl-3'-N-methyl-alpha-L-daunosaminyl)-β-rhodomycinone]	–	–	–	IC50, 1 h incubation [1, 4]: 0.0034 µg/mL (≈ 0.00581 µM); IC50, continuous incubation [1, 5]: 0.001 µg/mL (≈ 0.00171 µM)
CC[C@@]1(O)C[C@H](O[C@H]2C[C@H](N(C)Cc3ccccn3)[C@H](O)[C@H](C)O2)c2c(O)c3c(c(O)c2[C@H]1O)C(=O)c1cccc(O)c1C3=O [Compound 5, 7-O-(3'-N-Methyl-3'-N-(2-picolyl)-alpha-L-daunosaminyl)-β-rhodomycinone]	0.038 µg/mL (≈ 0.0612 µM)	0.24 µg/mL (≈ 0.387 µM)	–	–
CC[C@@]1(O)C[C@H](O[C@H]2C[C@H](N(C)CCO)[C@H](O)[C@H](C)O2)c2c(O)c3c(c(O)c2[C@H]1O)C(=O)c1cccc(O)c1C3=O [Compound 3, -O-(3'-N-Hydroxyethyl-3'-N-methyl-alpha-L-daunosaminyl)-β-rhodomycinone]	0.02 µg/mL (≈ 0.0349 µM)	0.044 µg/mL (≈ 0.0767 µM)	0.2 to 1 mg/kg	response vs control in vivo at 1.13 mg/kg (L1210 leukemia; Mus musculus, L1210, iv, 3xiv,q3d, dose 1.13 mg/kg, % of the control): 108%
CC[C@@]1(O)C[C@H](O[C@H]2C[C@H](N(C)CC3CO3)[C@H](O)[C@H](C)O2)c2c(O)c3c(c(O)c2[C@H]1O)C(=O)c1cccc(O)c1C3=O (stereo partly drawn) [Compound 8m, 7-O-(3'-N-Glycidyl-3'-N-methyl-alpha-L-daunosaminyl)-β-rhodomycinone]	–	–	–	IC50 [1, 8]: 0.002 µg/mL (≈ 0.00342 µM); IC50 [1, 9]: 0.0072 µg/mL (≈ 0.0123 µM); response vs control in vivo at 0.47 mg/kg (L1210 leukemia; Mus musculus, L1210, ip, read-out: T/C, L1210-leukemia in vivo): 114%
C=CCN(C)[C@H]1C[C@H](O[C@H]2C[C@](O)(CC)[C@H](O)c3c(O)c4c(c(O)c32)C(=O)c2c(OC)cccc2C4=O)O[C@@H](C)[C@H]1O [Compound 17, 7-O-(3'-N-Allyl-3'-N-methyl-alpha-L-daunosaminyl)-4-O-methyl-β-rhodomycinone]	0.036 µg/mL (≈ 0.0617 µM)	> 1 µg/mL	–	–
CC[C@@]1(O)C[C@H](O[C@H]2C[C@H](N(C)CC3CO3)[C@H](O)[C@H](C)O2)c2c(O)c3c(c(O)c2[C@H]1O)C(=O)c1cccc(O)c1C3=O (single isomer, unassigned) [Compound 8b, 7-O-(3'-N-Glycidyl-3'-N-methyl-alpha-L-daunosaminyl)-β-rhodomycinone]	–	–	–	IC50, 1 h incubation [1, 4]: 0.01 µg/mL (≈ 0.0171 µM); IC50, continuous incubation [1, 5]: 0.003 µg/mL (≈ 0.00512 µM)
COc1cccc2c1C(=O)c1c(O)c3c(c(O)c1C2=O)C[C@@](O)(C(=O)CO)C[C@@H]3O[C@H]1C[C@H](N)[C@H](O)[C@H](C)O1 [Adriamycin, reference compound]	0.02 µg/mL (≈ 0.0368 µM)	0.04 µg/mL (≈ 0.0736 µM)	2.7 mg/kg	Animals recovered (longterm survivors) (L1210 leukemia; 3xip,q3d, L1210-leukemia in vivo): Two of 6; Degree of resistance of the cell [3]: 60-80; Cross-resistance to adriamycin (degree of cross-resistance) [3]: 100.0%
C=CCN(C)[C@H]1C[C@H](O[C@H]2C[C@](O)(C(C)=O)Cc3c(O)c4c(c(O)c32)C(=O)c2c(OC)cccc2C4=O)O[C@@H](C)[C@H]1O [Compound 15, 7-O-(3'-N-Allyl-3'-N-methyl-alpha-L-daunosaminyl)-daunomycinone]	–	–	–	IC50 [1, 8]: 0.008 µg/mL (≈ 0.0138 µM); IC50 [1, 9]: > 1 µg/mL
CC[C@@]1(O)C[C@H](O[C@H]2C[C@H](N(C)Cc3cccs3)[C@H](O)[C@H](C)O2)c2c(O)c3c(c(O)c2[C@H]1O)C(=O)c1cccc(O)c1C3=O [Compound 13, 7-O-(3'-N-Methyl-3'-N-(2-thenyl)-alpha-L-daunosaminyl)-β-rhodomycinone]	0.034 µg/mL (≈ 0.0543 µM)	0.38 µg/mL (≈ 0.607 µM)	–	–
CC[C@@]1(O)C[C@H](O[C@H]2C[C@H](N(C)CC(C)=O)[C@H](O)[C@H](C)O2)c2c(O)c3c(c(O)c2[C@H]1O)C(=O)c1cccc(O)c1C3=O [Compound 18, 7-O-(3'-N-Acetonyl-3'-N-methyl-alpha-L-daunosaminyl)-β-rhodomycinone]	0.018 µg/mL (≈ 0.0307 µM)	0.073 µg/mL (≈ 0.125 µM)	–	–
CCOC(=O)CN(C)[C@H]1C[C@H](O[C@H]2C[C@](O)(CC)[C@H](O)c3c(O)c4c(c(O)c32)C(=O)c2c(O)cccc2C4=O)O[C@@H](C)[C@H]1O [Compound 10, 7-O-(3'-N-(Ethoxycarbonylmethyl)-3'-N-methyl-alpha-L-daunosaminyl)-β-rhodomycinone]	0.1 µg/mL (≈ 0.162 µM)	0.06 µg/mL (≈ 0.0975 µM)	10 to 25 mg/kg	response vs control in vivo at 12.7 mg/kg (L1210 leukemia; Mus musculus, L1210, iv, 3xiv,q3d, dose 12.7 mg/kg, % of the control): 132%
CC[C@@]1(O)C[C@H](O[C@H]2C[C@H](N(C)Cc3ccncc3)[C@H](O)[C@H](C)O2)c2c(O)c3c(c(O)c2[C@H]1O)C(=O)c1cccc(O)c1C3=O [Compound 4, 7-O-(3'-N-Methyl-3'-N-(4-picolyl)-alpha-L-daunosaminyl)-β-rhodomycinone]	0.023 µg/mL (≈ 0.0371 µM)	0.1 µg/mL (≈ 0.161 µM)	2.5 to 5 mg/kg	Cross-resistance to doxorubicin (in words) ([3]; L1210, MTT, in vitro): not cross-resistant to doxorubicin; Degree of resistance of the cell [3]: 1.6; Cross-resistance to adriamycin (degree of cross-resistance) [3]: 0.2%
CC[C@@]1(O)C[C@H](O[C@H]2C[C@H](N(C)CC(N)=O)[C@H](O)[C@H](C)O2)c2c(O)c3c(c(O)c2[C@H]1O)C(=O)c1cccc(O)c1C3=O [Compound 7, 7-O-(3'-N-Acetamido-3'-N-methyl-alpha-L-daunosaminyl)-β-rhodomycinone]	0.084 µg/mL (≈ 0.143 µM)	0.24 µg/mL (≈ 0.409 µM)	2 to 5 mg/kg	response vs control in vivo at 11.2 mg/kg (L1210 leukemia; Mus musculus, L1210, iv, 3xiv,q3d, dose 11.2 mg/kg, % of the control): 142%
C=CCN(C)[C@H]1C[C@H](O[C@H]2C[C@](O)(CC)[C@H](O)c3c(O)c4c(c(O)c32)C(=O)c2c(O)ccc(O)c2C4=O)O[C@@H](C)[C@H]1O [Compound 9, 7-O-(3'-N-Allyl-3'-N-methyl-alpha-L-daunosaminyl)-β-isorhodomycinone]	0.008 µg/mL (≈ 0.0137 µM)	0.5 µg/mL (≈ 0.854 µM)	> 6 mg/kg	–
